In brackets after ≈: the same amount, converted by molar mass.
Columns and labels:
Pseudomonas aeruginosa [1] = assay: microbe, parasite or virus in culture; details: ATCC 27853
Description: Antimicrobial activity against Pseudomonas aeruginosa ATCC 27853 by broth microdilution method

[2] = tested on: T1, UDP-3-O-acyl-N-acetylglucosamine deacetylase (Pseudomonas aeruginosa (strain ATCC 15692 / PAO1 / 1C / PRS 101 / LMG12228)), P47205 [C40S]
T1 sequence (whole entry): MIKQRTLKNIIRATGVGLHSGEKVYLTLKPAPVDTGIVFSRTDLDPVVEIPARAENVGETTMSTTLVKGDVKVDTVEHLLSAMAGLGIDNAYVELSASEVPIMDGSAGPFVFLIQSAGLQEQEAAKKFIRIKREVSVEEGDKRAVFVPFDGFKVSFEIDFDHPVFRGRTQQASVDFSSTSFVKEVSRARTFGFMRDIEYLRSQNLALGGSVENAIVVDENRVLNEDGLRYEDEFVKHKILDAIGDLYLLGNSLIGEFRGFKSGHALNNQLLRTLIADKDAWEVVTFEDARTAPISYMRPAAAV

Pseudomonas aeruginosa [3] = assay: microbe, parasite or virus in culture; details: PAO1
Description: Antimicrobial activity against wild-type Pseudomonas aeruginosa PAO1 by broth microdilution method

Escherichia coli [4] = assay: microbe, parasite or virus in culture; details: ATCC 25922
Description: Antibacterial activity against wild-type Escherichia coli ATCC 25922 by broth microdilution method

physchem [5] = details: DMSO, pH 7
Description: Solubility of the compound in DMSO at pH 7 incubated for 24 hrs by LC-UV method

physchem [6] = details: n-octanol/phosphate buffered saline, pH 7.4
Description: n-Octanol/phosphate buffered saline partition coefficient, log D of the compound at pH 7.4 by LC-UV method

Klebsiella pneumoniae = assay: microbe, parasite or virus in culture; details: T 6474
Description: Antibacterial activity against multi-drug resistant Klebsiella pneumoniae T 6474 by broth microdilution method

Pseudomonas aeruginosa [7] = assay: Antimicrobial activity against Pseudomonas aeruginosa PA2616 harboring delta mexAB-OprM mutant by broth microdilution method; assay type: functional
physchem [8] = details: DMSO, pH 9
Description: Solubility of the compound in DMSO at pH 9 incubated for 24 hrs by LC-UV method

[9] = tested on: T2, UDP-3-O-acyl-N-acetylglucosamine deacetylase (Escherichia coli K-12), P0A725 [C125S]
T2 sequence (whole entry): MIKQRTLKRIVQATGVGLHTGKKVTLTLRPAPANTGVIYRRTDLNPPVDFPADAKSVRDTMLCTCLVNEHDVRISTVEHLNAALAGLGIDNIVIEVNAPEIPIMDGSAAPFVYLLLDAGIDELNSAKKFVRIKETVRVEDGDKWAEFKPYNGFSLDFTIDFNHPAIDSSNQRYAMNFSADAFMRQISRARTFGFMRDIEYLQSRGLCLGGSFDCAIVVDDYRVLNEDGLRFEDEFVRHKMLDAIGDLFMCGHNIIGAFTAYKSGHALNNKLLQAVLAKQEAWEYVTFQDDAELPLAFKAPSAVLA

[10] = mouse, in vivo, sc, 50 mg/kg
in vivo = details: NMRI/ICR CD-1, mouse, sc, 50 mg/kg
[11] = Cmax in NMRI/ICR CD-1 mouse at 50 mg/kg, sc by LC-MS/MS analysis; assay type: ADME, organism-based; design: dose 50 mg/kg, route subcutaneous; details: in vivo
[12] = Tmax in NMRI/ICR CD-1 mouse at 50 mg/kg, sc by LC-MS/MS analysis; assay type: ADME, organism-based; details: in vivo
Mus musculus [13] = assay: Apparent unbound clearance in NMRI/ICR CD-1 mouse at 50 mg/kg, sc by LC-MS/MS analysis; assay type: ADME, organism-based; details: in vivo
Escherichia coli [14] = assay: Antibacterial activity against Escherichia coli infected in cyclophosphamide-induced NMRI/ICR CD-1 mouse model of neutropenic thigh infection assessed as reduction in thigh bacterial load at 450 mg/kg, sc administered as single dose measured after 22 hrs relative to control; assay type: functional
[15] = mouse, plasma, 1 µM
Description: Protein binding in mouse plasma assessed as fraction unbound at 1 uM by equilibrium dialysis method

Escherichia coli [16] = assay: Antibacterial activity against Escherichia coli infected in cyclophosphamide-induced NMRI/ICR CD-1 mouse model of neutropenic thigh infection assessed as reduction in thigh bacterial load at 150 mg/kg, sc measured after 22 hrs relative to control; assay type: functional
Escherichia coli [17] = assay: Antibacterial activity against Escherichia coli infected in cyclophosphamide-induced NMRI/ICR CD-1 mouse model of neutropenic thigh infection assessed as reduction in thigh bacterial load at 50 mg/kg, sc measured after 22 hrs relative to control; assay type: functional
Escherichia coli [18] = assay: Antibacterial activity against Escherichia coli infected in cyclophosphamide-induced NMRI/ICR CD-1 mouse model of neutropenic thigh infection assessed as reduction in thigh bacterial load at 112.54 mg/kg, sc administered at 5.5 hrs interval for 4 times relative to control; assay type: functional
[19] = Apparent clearance in NMRI/ICR CD-1 mouse at 50 mg/kg, sc by LC-MS/MS analysis; assay type: ADME, organism-based; details: in vivo
physchem [20] = details: DMSO, pH 4
Description: Solubility of the compound in DMSO at pH 4 incubated for 24 hrs by LC-UV method

[21] = Free AUC (0 to 24 hrs) in NMRI/ICR CD-1 mouse at 75 mg/kg, sc by LC-MS/MS analysis; assay type: ADME, organism-based; details: in vivo
Mus musculus [22] = assay: Apparent unbound clearance in NMRI/ICR CD-1 mouse at 75 mg/kg, sc by LC-MS/MS analysis; assay type: ADME, organism-based; details: in vivo
[23] = Apparent clearance in NMRI/ICR CD-1 mouse at 75 mg/kg, sc by LC-MS/MS analysis; assay type: ADME, organism-based; details: in vivo

| SMILES | MIC (Pseudomonas aeruginosa [1]) [µg/mL] | ΔTm [2] [°C] | MIC (Pseudomonas aeruginosa [3]) [µg/mL] | MIC (Escherichia coli [4]) [µg/mL] | solubility at 24 h (physchem [5]) [µg/mL] | logD (physchem [6]) | MIC (Klebsiella pneumoniae) [µg/mL] | MIC (Pseudomonas aeruginosa [7]) [µg/mL] | solubility at 24 h (physchem [8]) [µg/mL] | ΔTm [9] [°C] | AUC(0-t) at 24 h (in vivo) [ng·h/mL] | Cmax [11] [ng/mL] | Fu [15] [%] | other results |
| --- | --- | --- | --- | --- | --- | --- | --- | --- | --- | --- | --- | --- | --- | --- |
| COc1ccc(-c2ccc3c(c2)CN(CC[C@](C)(C(=O)NO)S(C)(=O)=O)C3=O)c(F)c1 | 2 (≈ 4.44 µM) | 11 | 2 (≈ 4.44 µM) | ≤ 0.06 | 5 (≈ 11.1 µM) | 1.9 | ≤ 0.06 | 0.25 (≈ 0.555 µM) | 22 (≈ 48.8 µM) | 9.1 | – | – | – | – |
| C[C@@](CCN1Cc2cc(C#CC#CC3(CO)CC3)cn2C1=O)(C(=O)NO)S(C)(=O)=O | 0.5 (≈ 1.15 µM) | 12.5 | 1 (≈ 2.31 µM) | 0.25 (≈ 0.577 µM) | – | – | 1 (≈ 2.31 µM) | – | – | 9.9 | 33000 | 20200 | 0.085 | fAUC [10]: 2810 ng·h/mL; Tmax [12]: 30 min; CLu/F (Mus musculus [13]): 295 mL/min/kg; fold change (FC) (Escherichia coli [14]): 1; fold change (FC) (Escherichia coli [16]): 0.8; fold change (FC) (Escherichia coli [17]): 2.1; fold change (FC) (Escherichia coli [18]): 1.5; CL/F [19]: 25.1 mL/min/kg |
| C[C@@](CCN1Cc2cc(C#Cc3ccc([C@H](O)CO)cc3)cn2C1=O)(C(=O)NO)S(C)(=O)=O | 1 (≈ 2.1 µM) | 12.7 | 1 (≈ 2.1 µM) | 0.5 (≈ 1.05 µM) | 605 (≈ 1270 µM) | 0.5 | 1 (≈ 2.1 µM) | – | 660 (≈ 1390 µM) | 11.1 | 76500 | 41300 | 0.016 | fAUC [10]: 1230 ng·h/mL; Tmax [12]: 30 min; solubility at 24 h (physchem [20]): 167 µg/mL (≈ 351 µM); CLu/F (Mus musculus [13]): 680 mL/min/kg; fold change (FC) (Escherichia coli [16]): 0.4; fold change (FC) (Escherichia coli [17]): 2.4; CL/F [19]: 10.8 mL/min/kg |
| COc1ccc(-c2cn(CC[C@](C)(C(=O)NO)S(C)(=O)=O)c(=O)o2)c(F)c1 | 8 (≈ 19.9 µM) | 9.9 | 8 (≈ 19.9 µM) | 8 (≈ 19.9 µM) | – | – | 16 (≈ 39.8 µM) | 1 (≈ 2.49 µM) | – | 5.2 | – | – | – | – |
| COc1ccc(-c2ccn(CC[C@](C)(C(=O)NO)S(C)(=O)=O)c(=O)c2)c(F)c1 | 0.5 (≈ 1.21 µM) | – | 0.25 to 0.5 (≈ 0.606 to 1.21 µM) | ≤ 0.06 | 130 (≈ 315 µM) | 1.1 | 0.25 (≈ 0.606 µM) | ≤ 0.06 | 692 (≈ 1680 µM) | – | 11700 | 10300 | 0.31 | fAUC [21]: 3620 ng·h/mL; CLu/F (Mus musculus [22]): 231 mL/min/kg; CL/F [23]: 72 mL/min/kg |
| COc1ccc(-c2cc3c(s2)C(=O)N(CC[C@](C)(C(=O)NO)S(C)(=O)=O)C3)c(F)c1 | 1 (≈ 2.19 µM) | 12.4 | 0.5 (≈ 1.1 µM) | ≤ 0.06 | 5 (≈ 11 µM) | 2.1 | 0.25 (≈ 0.548 µM) | 0.12 (≈ 0.263 µM) | 36 (≈ 78.9 µM) | 9.3 | – | – | – | – |
| COc1ccc(-c2cn3c(n2)CN(CC[C@](C)(C(=O)NO)S(C)(=O)=O)C3=O)c(F)c1 | > 32 | 6.9 | > 32 | 4 (≈ 9.08 µM) | – | – | 16 (≈ 36.3 µM) | 8 (≈ 18.2 µM) | – | 6 | – | – | – | – |
| COc1ccc(-c2cn(CC[C@@](C)(C(=O)NO)S(C)(=O)=O)c(=O)o2)c(F)c1 | > 32 | 3.7 | > 32 | > 32 | – | – | > 32 | 16 (≈ 39.8 µM) | – | 1.9 | – | – | – | – |
